This is an account of results in patent US11396531B2, “Antimicrobial peptides comprising epsilon lysine residues” (priority 2016, dated 2022).

≈ marks a conversion by molar mass, not a printed value.

In one data set the test system is B. cereus ATCC 11778. The settings on record: B. cereus ATCC 11778, Table 5. The method, then: (§1) MIC of cationic polymers and polypeptide were tested in accordance with the Clinical and Laboratory Standards Institute (CLSI) guidelines against a panel of antibiotic-susceptible/-resistant bacteria, yeasts and fungal strains. Bacterial and yeast strains were cultured on tryptic soy agar (TSA) and Sabaroud dextrose agar (SDA) plates (Neogen Corporation, MI, USA) overnight respectively. Inocula in Mueller-Hinton broth (MHB) for bacteria and SD broth for C. albicans (Beckton Dickinson, MD, USA) were prepared at 0.5 McFarland. The suspensions were then diluted to a final concentration of 10^5 CFU/ml in a 96-well microtitre plate (SPL Life Sciences Co., Ltd, Korea). […] The antimicrobial activities were compared with topical antiseptic agents, BAK and CHX. A similar protocol was used to determine the MIC of εPL against antibiotic-resistant pathogens. MIC of the polymers and polypeptides against Fusarium strains was determined in full strength RPMI-1640 buffer. Fungal spores were recovered from a 5-day old culture on a potato dextrose agar and diluted to a concentration of 10^5 spores/ml in 0.9% saline solution. A further 50-fold dilution was done in RPMI-1640 buffer and 100 μl of the inoculum was added to 96 well plates containing an equal volume of test peptides at 2-fold serial dilutions. 200 μl of inoculum without any additives and buffer alone served as positive and negative controls, respectively. The plate was then incubated at 30° C. for 48 h. The absorbance value was measured at 600 nm as before and the lowest concentration of the peptide which inhibited 90% growth was reported. All MIC determinations were performed in duplicates.
(§2) MICs of polymers/antibiotics were determined using the microdilution method in 96 well microtitre plates (SPL Life Sciences Co., Ltd, Korea), following the guidelines of Clinical and Laboratory Standards Institute (CLSI) document M100-S18. Briefly, polymers (1-512 μg/ml) or antibiotics were dissolved in appropriate media (Mueller Hinton broth, MHB for bacteria; Sabaroud's Dextrose (SD) broth for yeasts and RPMI buffer for Fusarium strains) and 100 μl of this was then mixed with an equal volume of microbial inoculum (OD600=˜0.08) in the same media and shaken in a closed incubator.

The next data set has as its system C. albicans. The method, then:
as §1, §2

A further data set relates to C. parapsilosis. The settings on record: C. parpsilosis (n = 9), Table 5. Here is the method:
as §1, §2

For another data set, the system named is C. tropicalis. The settings on record: C. tropicalis (n = 9), Table 5. The method, then:
as §1, §2

In data set [1] the test system is Vancomycin-resistant Enterococcus (VRE). The settings on record: VRE (n = 21 strains), Table 5. The method, then: as §1, §2
The subject of data set [2] is primary human dermal fibroblasts (HDFs). In words: MTS cytotoxicity assay. Here is the method: MTS ((3-(4,5-dimethylthiazol-2-yl)-5-(3-carboxymethoxyphenyl)-2-(4-sulfophenyl)-2H-tetrazolium)) assay and high content analysis (HCA) were performed to elucidate the effect of various polymers on metabolic activity and morphological parameters of cultured human dermal fibroblasts (hDF), respectively as described previously. The antineoplastic agent, nocodazole (5 μg/ml), served as the […] control whereas cells treated with PBS served as positive control. The average values from three independent triplicate experiments are reported. Cells were cultured in 96-well plates and scanned (16 randomly selected fields/well) using an automated microscope IN Cell Analyzer 2200 (GE Healthcare). The multi-parametric cytotoxicity bio-application module of the IN Cell Investigator software (GE Healthcare) was used in quantitative estimations and morphotypic analysis of acquired images, which were automatically converted into color-coded heatmaps using Spotrfire® software.
Human dermal fibroblast cells were seeded in 96-well plates (2×10^3 cells/well) and incubated for 24 h at 37° C. and 5% CO2. Cells were then treated with various concentrations of polymers or peptides (62.5 μg/ml-1 mg/ml. At the end of the treatment period (after 24 h), 20 or 50 μl of MTS tetrazolium solution was added into 96-well or 12-well plates and further incubated for 2 h at 37° C. Subsequently, the absorbance was measured at 490 nm using a microplate reader (Infinite M200 Pro, Tecan, Switzerland) and the relative cell viability was calculated. Each treatment was performed in two triplicates and reported.
The cytotoxicity of peptides and polymers were determined using CellTier 96® Aqueous One solution cell proliferation assay kit according to the manufacturer's instruction (Promega Corporation, Madison, Wis.). This assay evaluates mitochondrial function by measuring ability of viable cells to reduce MTS ((3-(4,5-dimethylthiazol-2-yl)-5-(3-carboxymethoxyphenyl)-2-(4-sulfophenyl)-2H-tetrazolium)) into a quantifiable […] formazan product. HDFs were seeded in 96-well plates (2×10^3 cells/well) and incubated for 24 h at 37° C. and 5% CO2. Cells were then treated with a concentrated stock solution of polymers (final concentration 62.5-2000 μg/ml in the well) or peptides (final concentration 4-1000 μg/ml in the well). After 24 h, 20 μl of MTS tetrazolium solution was added into 96-well well plates and further incubated for 2 h at 37° C. Subsequently, the absorbance was measured at 490 nm using a microplate reader (Infinite M200 Pro, Tecan, Switzerland) and the relative cell viability was calculated relative to untreated control (10 mM PBS, pH 7.0). Each treatment was performed in two triplicates and reported.
On the technique in general: Tetrazolium dyes change colour on reduction, which living cells bring about.

The term MIC denotes the smallest concentration in the dilution series that meets the test's criterion for growth inhibition. For `CC[C@H](C)[C@H](NC(=O)CN)C(=O)NCC(=O)N[C@@H](C)C(=O)N[C@H](C(=O)N[C@@H](CC(C)C)C(=O)N[C@@H](CCCCN)C(=O)N[C@H](C(=O)N[C@@H](CC(C)C)C(=O)N[C@H](C(=O)N[C@H](C(=O)NCC(=O)N[C@@H](CC(C)C)C(=O)N1CCC[C@H]1C(=O)N[C@@H](C)C(=O)N[C@@H](CC(C)C)C(=O)N[C@H](C(=O)N[C@@H](CO)C(=O)N[C@@H](Cc1c[nH]c2ccccc12)C(=O)N[C@H](C(=O)N[C@@H](CCCCN)C(=O)N[C@@H](CCCNC(=N)N)C(=O)N[C@@H](CCCCN)C(=O)N[C@@H](CCCNC(=N)N)C(=O)N[C@@H](CCC(N)=O)C(=O)N[C@@H](CCC(N)=O)C(N)=O)[C@@H](C)CC)[C@@H](C)CC)[C@@H](C)O)[C@@H](C)O)C(C)C)C(C)C` [Melittin], the MIC in the data set on B. cereus ATCC 11778 was 8 µg/mL (≈ 2.81 µM); against C. albicans (C. albicans (n = 5), Table 5), 2 to 4 µg/mL; in the data set with C. parapsilosis, 16 to 64 µg/mL; against C. tropicalis, 8 to 64 µg/mL; in data set [1] (range), 0.5 to 8 µg/mL. Also, the “MIC against C. albicans (n = 5)” value in the data set on C. albicans (Table 4, range over 5 strains) was 2 to 4 µg/mL. In addition, the MIC90 entry in data set [1] (90% of strains susceptible) is given as “(MIC90 = 8)^2 μg/ml”. The “Cytotoxicity (in μg/ml) for HDFs” value in data set [2] (Concentration at which complete cytotoxicity was observed in MTS and HCA) is 16 µg/mL. Also, the “Cytotoxicity for primary human dermal fibroblasts” value in data set [2] (Table 5) was determined as 16 µg/mL.
